Experimental data as given in US12060586B2, “Cell data recorders and uses thereof” (The Broad Institute, Inc., priority 2018, dated 2024).

System: Wnt signaling
Assay: Wnt signaling-driven luciferase expression in HEK293T cells
Type: cell-based, human
Details: HEK293T transfected with (LEF-TCF)7-BE3-P2A-Luc; LiCl 50 mM, 24 hours
Excerpt: The Wnt signaling pathway (also known as a signaling cascade) plays a crucial role in embryonic development and aberrant Wnt signaling is associated with a variety of diseases in humans (38). A recording of Wnt signaling was sought using CAMERA 2m in human cells. To achieve this goal, the expression of BE3 was placed under a (LEF-TCF)7 promoter (39) that responds to Wnt signaling to initiate downstream gene expression in CAMERA 2 m.3. […] A (LEF-TCF)7-BE3-P2A-Luc construct that expresses a firefly luciferase protein together with BE3 was included so that Wnt could be monitored simultaneously by luminescence and by high-throughput sequencing of the CCR5 recording locus. […] This increase in Wnt signaling was permanently recorded by a 53-fold increase in base editing at the CCR5 locus upon LiCl treatment (FIG. 5E).
To enable CAMERA 2m to record Wnt signaling, a (TCF/LEF)7 promoter was installed upstream BE3 and BE3-P2A-Luc to generate CAMERA 2 m.3 ((TCF/LEF)7-BE3 and ((TCF/LEF)7-BE3-P2A-Luc). TOPFlash ((TCF/LEF)7-Luc) (47) was used as a transient readout of Wnt signaling. A control plasmid that encodes the Renilla luciferase was included to normalize transfection efficiency for luminescence readout. […]
Firefly luciferase and Renilla luciferase activities were measured 24 hours after LiCl treatment. […]

SMILES: [Cl-].[Li+] [LiCl]
- fold increase in Wnt signaling-driven luciferase expression: 140 fold
